Reference: patent US20180200326A1, “ANG-(1-7) AND DERIVATIVE OLIGOPEPTIDES FOR THE TREATMENT OF TRAUMATIC BRAIN INJURY AND OTHER COGNITIVE IMPAIRMENTS” (Arizona Board Of Regents On Behalf Of The University of …, priority 2017, published 2018)
Read-outs that look alike come from different tables or passages of the source. Peptide text beside a SMILES is read from it. * marks the point of attachment. X2 = OC[C@H]1O[C@@H](O[C@H]2[C@H](O)[C@@H](O)C(*)O[C@@H]2CO)[C@H](O)[C@@H](O)[C@H]1O; X1 = OC[C@H]1OC(*)[C@H](O)[C@@H](O)[C@@H]1O

Experiments:
[1] = mouse, serum
Experimental: (§3) Aliquots were withdrawn at the indicated time intervals and the peptide concentration was determined using HPLC-MS and expressed as a percentage of the initial concentration.

[2] = test system: human umbilical vascular endothelial cells (HUVEC); assay: xCELLigence RTCA cell activation (cell impedance); type: cell-based; details: average of 4 wells, normalized to CI at compound addition
Description: (§1) To isolate primary hippocampal CA1 neuronal cells, whole brain was removed from neonatal rat pups (1-2 day old) and the cortices dissected away. The hippocampus was isolated and the CA1 field was excised and placed in buffer. After gentle disruption in digestion buffer, the cells were counted, placed in culture media, and plated in a 96-well format coated with poly-d-lysine. At the time of plating, cells were approximately at 50% density and were allowed to culture to 70-80% density before starting the assay. Commercially available HUVEC (Life Technologies/Thermo Fisher) was thawed and plated (5000-10,000 cells/well) in a 96-well format coated with gelatin. HUVEC cells were allowed to culture overnight before starting the assay.
The xCELLigence system Real-Time Cell Analyzer (RTCA), developed by Roche Applied Science, uses microelectronic biosensor technology to do dynamic, real-time, label-free, and non-invasive analysis of cellular events including G-protein receptor activation of cells. The RTCA analysis was utilized to measure the potency and relative ability of oligopeptides of the invention and native Ang-(1-7) to activate human umbilical vascular endothelial cells (HUVEC) in culture. Following uniform cellular adherence based on a linear increase in cell impedance (CI), HUVECs were treated with Ang-(1-7) and oligopeptides of the invention. Each trace of the CI over time in FIG. 1 represents the average of 4 wells normalized to CI at the time of compound addition.

[3] = test system: human umbilical vascular endothelial cells (HUVEC); assay: NO production assay (DAF-FM fluorescence, microplate reader); type: cell-based; details: 5 minutes exposure; for NO over control levels (relative peak fluorescence intensity): normalized to control fluorescence
Description: as §1
As a screen for mechanisms of action of oligopeptides of the invention, the ability to increase NO production of three oligopeptides of the invention (PN-A3, PN-A4 and PN-A5) were characterized and compared to native Ang-(1-7). Human umbilical vascular endothelial cells (HUVEC) culture plates received fluorescence reaction buffer (0.2 M phosphate buffer, pH 7, 1 mM EDTA, 0.1% glucose) containing diaminofluorescein-FM diacetate (DAF-FM, 1 μM) to measure real-time NO production. Time-resolved (10 minutes) fluorescent intensity was detected using a BioTek Synergy 2 microplate reader with excitation at 485 nm and emission at 535 nm. DAF-FM is a sensitive flourometric derivative for the selective detection of NO in live cells.
Values were normalized to control fluorescence.

[4] = test system: CHF mice (object recognition memory impairment); assay: Novel Object Recognition (NOR) in congestive heart failure mice; type: in vivo, mouse; details: 1 mg/kg/day subcutaneous, approximately 21 days, n=11, DRatio=(t novel−t familiar)/(t novel+t familiar), CHF-saline M=−0.05, Sham-saline M=+0.52
Experimental: (§2) A total of 33, male C57Bl/6J adult mice (Harlan, 8-10 weeks old) were used. Mice were randomly assigned to either the sham (n=12) or congestive heart failure (CHF) group (n=21). Experimental groups are described as follows: sham+saline, CHF+saline, CHF+PN-A5. All mice prior to surgery were weighed and anesthetized. For the CHF mice, MI was induced by ligation of the left coronary artery (LCA). Under anesthesia (2.5% isoflurane in a mixture of air and O2) a thoracotomy was performed at the fourth left intercostal space and the LCA permanently ligated to induce a myocardial infarction (MI). […]
The apparatus consisted of an evenly illuminated Plexiglas box (12 cm×12 cm×12 cm) placed on a table inside an isolated observation room. […] The mouse behavior and exploration of objects was recorded with a digital camera. […]
The novel object recognition task included 3 phases: habituation phase, familiarization phase, and test phase. […] Exploration was scored by an observer blind to the mouse's surgical group (CHF vs. Sham). […]
Discrimination ratios were calculated from the time spent exploring the novel object minus time spent exploring the familiar object during the test phase divided by the total exploration time. […] Data were analyzed from first 2 minutes of ‘test phase’. […]

[5] = test system: CHF mice (spatial memory impairment); assay: Morris water task (spatial memory) in congestive heart failure mice; type: in vivo, mouse; details: 1 mg/kg/day subcutaneous, approximately 25 days, day 3 of Morris swim task, n=11, CHF-saline M=32.5
Experimental: as §2, with “(MI). Occlusion of the LCA was confirmed by observing blanching, a slight change in color of the anterior wall of the left ventricle downstream of the ligature. Sham mice underwent the same procedure with the exception of ligating the LCA.” for “(MI).”
During the spatial version of the Morris water task, all animals were given 6 training trials per day over 4 consecutive days. […] Performance on the swim task was analyzed with a commercial software application (ANY-maze, Wood Dale, Ill.). Because different release locations and differences in swimming velocity produce variability in the latency to reach the escape platform, a corrected integrated path length (CIPL) was calculated to ensure comparability of mice performance across different release locations. […]

[6] = In vivo serum and CSF concentration after subcutaneous injection; details: naïve mice; 10 mg/kg subcutaneous; microdialysis probe; corrected for basal CSF levels
Experimental: (§4) The peptides (10 mg/kg) or vehicle control were individually subcutaneously injected into naïve mice. Serum concentrations were determined every 10 minutes by HPLC-MS using a 20-30 μl blood sample. […] CSF samples were simultaneously withdrawn from the same animals via a microdialysis probe and assayed for the peptide concentration and corrected for basal CSF levels.

[7] = In Vitro Serum Half-Life Assay; details: mouse
Experimental: as §3

[8] = mouse, in vivo, sc, 10 mg/kg
Experimental: as §4

Mas receptor (MasR) = target: T1, Mas receptor (MasR) (Homo sapiens, UniProt P04201); details: binding to GPCR Mas receptor (MasR); cited from earlier work
T1 sequence (P04201 1-325): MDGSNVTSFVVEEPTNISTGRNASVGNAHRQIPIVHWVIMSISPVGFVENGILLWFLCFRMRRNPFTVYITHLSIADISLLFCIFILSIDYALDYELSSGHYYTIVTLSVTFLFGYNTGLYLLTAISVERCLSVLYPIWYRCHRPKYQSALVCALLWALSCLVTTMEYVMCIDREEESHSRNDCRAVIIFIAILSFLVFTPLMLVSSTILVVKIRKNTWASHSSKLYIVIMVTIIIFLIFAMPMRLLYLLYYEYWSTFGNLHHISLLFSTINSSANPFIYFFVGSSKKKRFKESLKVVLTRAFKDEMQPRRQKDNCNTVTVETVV

in vivo = details: mouse, sc, 10 mg/kg
Experimental: as §4

Compound | half-life [1] [min] | increase in CI (cell impedance) over the native Ang-(1-7) ([2]; 10 nM) [fold] | increase in CI (cell impedance) over the native Ang-(1-7) ([2]; 100 nM) [fold] | NO over control levels (relative peak fluorescence intensity) [3] | further results
CC[C@H](C)[C@H](NC(=O)[C@H](Cc1ccc(O)cc1)NC(=O)[C@@H](NC(=O)[C@H](CCCNC(=N)N)NC(=O)[C@@H](N)CC(=O)O)C(C)C)C(=O)N[C@@H](Cc1c[nH]cn1)C(=O)N1CCC[C@H]1C(N)=O [PN-A2, Ang 1-7-NH2] | 21 | – | – | – | –
CC[C@H](C)[C@H](NC(=O)[C@H](Cc1ccc(O)cc1)NC(=O)[C@@H](NC(=O)[C@H](CCCNC(=N)N)NC(=O)[C@@H](N)CC(=O)O)C(C)C)C(=O)N[C@@H](Cc1c[nH]cn1)C(=O)N[C@@H](COC1O[C@H](CO)[C@@H](O)[C@H](O)[C@H]1O)C(N)=O (stereo partly drawn) [PN-A5, Ang 1-6-Ser(OGlc)-NH2] (H-DRVYIHS(X1)-NH2; N-terminus assumed) | – | ~2 | ~2 | significant elevation | NO production compared with native Ang-(1-7) ([3]; p<0.05): significantly enhancing NO production; discrimination ratio in NOR test (mean M) [4]: +0.38; corrected integrated path length (CIPL), mean M [5]: 23.5; maximum CSF concentration [6]: about 400 nM
CC[C@H](C)[C@H](NC(=O)[C@H](Cc1ccc(O)cc1)NC(=O)[C@@H](NC(=O)[C@H](CCCNC(=N)N)NC(=O)[C@@H](N)CC(=O)O)C(C)C)C(=O)N[C@@H](Cc1c[nH]cn1)C(=O)N[C@@H](COC1O[C@H](CO)[C@@H](O[C@@H]2O[C@H](CO)[C@H](O)[C@H](O)[C@H]2O)[C@H](O)[C@H]1O)C(N)=O (stereo partly drawn) [PN-A6, Ang 1-6-Ser(OLac)-NH2] (H-DRVYIHS(X2)-NH2) | – | – | – | – | half-life [7]: 348 min
CC[C@H](C)[C@H](NC(=O)[C@H](Cc1ccc(O)cc1)NC(=O)[C@@H](NC(=O)[C@H](CCCNC(=N)N)NC(=O)[C@@H](N)CC(=O)O)C(C)C)C(=O)N[C@@H](Cc1c[nH]cn1)C(=O)N1CCC[C@H]1C(=O)O [native Ang-(1-7), Asp-Arg-Val-Tyr-Ile-His-Pro] | 14 | – | – | – | maximum CSF concentration [8]: about 50 nM; Kd (Mas receptor (MasR)): 0.83 nM; Cmax (in vivo): ~200 nM
PN-A3: native Ang(1-7) sequence with added C-terminal Ser8, glucosylated and C-terminally amidated (NH2); SEQ ID NO: 9 (DRVYIHPS; glucosylated, C-terminal amide; (8)..(8) Glycosylated; (8)..(8) Carboxy terminal NH2; See specification as filed for detailed description of substitutions and preferred embodiments) | – | ~2 | ~2 | significant elevation | –
PN-A4: native Ang(1-7) sequence with added C-terminal Ser8, lactosylated and C-terminally amidated (NH2); SEQ ID NO: 9 (DRVYIHPS; lactosylated, C-terminal amide; (8)..(8) Glycosylated; (8)..(8) Carboxy terminal NH2; See specification as filed for detailed description of substitutions and preferred embodiments) | – | – | ~2 | significant elevation | –
